From PubChem BioAssay AID1963842 (Molecular Pharmacology Branch, DTP, NCI, 2024)
pIC50: −log10 of the molar value.

System: 677734-321-R-J1-PDC complex spheroid viability
Test: Anticancer human tumor 677734-321-R-J1-PDC patient-derived soft tissue sarcoma cell line growth inhibition [POLQ]
Conditions: for pIC50: curve of first compound; for viability, T/C: stronger effect = lower value
Protocol: Multicellular complex tumor spheroid response to Polymerase (POL) inhibitors (novobiocin, ART-558, RP6685) in combination with a variety of drugs and investigational agents in selected tumor cell lines
The POL inhibitors (novobiocin, ART-558, and RP6685) were evaluated both individually and in combination with standard of care and investigational anticancer small molecules within a complex spheroid model of solid tumors. . Complex spheroids include a stromal component modeled by human endothelial cells (HUVEC) and fibroblasts modeled by human mesenchymal stem cells (MSCs). The concentration ranges selected for each drug and investigational agent were based upon clinically achievable concentrations if the clinical Cmax of the agent was known.
Compounds. The drugs and investigational agents: novobiocin (NSC847541), ART-558 (NSC835418), RP-6685 (NSC848927), peposertib (NSC802822), ceralasertib (NSC780249), elimusertib (NSC800525), camonsertib (NSC841442), AZD-1390 (NSC803789), olaparib (NSC753686), talazoparib (NSC767125), rucaparib (NSC756644), sotorasib (NSC818433), MRTX-1133 (NSC836407), SN-38 (NSC673596), topotecan (NSC609699), epotoside (NSC141540), doxorubicin (NSC123127), gemcitabine (NSC613327), 5-fluorouracil (NSC19893), paclitaxel (NSC125973), vemurafenib (NSC761431), MSA-2 (NSC828583), SN-011 (NSC837082), adavosertib (NSC754352), prexasertib (NSC758257), carboplatin (NSC241240) and oxaliplatin (NSC266046), were obtained from the National Cancer Institute (NCI) Developmental Therapeutics Program Chemical Repository (21). The FDA-approved anticancer drug set is available from the Developmental Therapeutics Program at https://dtp.cancer.gov/organization/dscb/obtaining/. […] The stock solutions were prepared in dimethyl sulfoxide (DMSO, Sigma-Aldrich, St. Louis, MO, cat. D2650), except for the platinum compounds which were prepared in saline (Quality Biological, Gaithersburg, MD, cat. 114-055-101), at 800-fold the tested concentration and stored at -70 degrees C prior to their use. All drugs and investigational agents were tested over a range starting from a high concentration at or near the clinical Cmax and decreasing in half-log increments. If the clinical Cmax for an agent had not been determined, the highest concentration tested was 10 microM, except for SN-38, which was tested at a high concentration of 1 microM.
Cell Culture. All cells were maintained in an incubator at 37 degrees C and 5% CO2 with 95% humidity. The PDC lines were cultured according to standard operating procedures established by the NCI PDMR (https://pdmr.cancer.gov). Table 3 of the manuscript, lists the cell lines along with the number of the three cell types plated to form the mct-spheroids and media for tumor cell growth. After thawing, all PDC lines, except 997537-175-T-J1-PDC and 415267-285-R-J2-PDC, were cultured in Matrigel-coated flasks prepared with a working solution of 1X Ham's F-12 nutrient mix, without supplementation (Thermo Fisher Scientific, cat. 11765054), 100 U/mL penicillin-streptomycin (Thermo Fisher Scientific, cat. 15140122), and 2.5% Matrigel (Corning Inc., Corning, NY, cat. 354248) for the first three passages. The two PDC lines 997537-175-T-J1-PDC and 415267-285-R-J2-PDC were cultured on uncoated flasks. The 857933-349-R-J2-PDC line was cultured in 6C/Colon 1B media containing advanced DMEM/F-12 (Thermo Fisher Scientific, cat. 12634028), 10 mM HEPES (Thermo Fisher Scientific, cat. 15630080), 1X GlutaMAX supplement (Thermo Fisher Scientific, cat. 35050061), 0.1 mg/mL primocin (InvivoGen, San Diego, CA, cat. ant-pm-2), 10% defined fetal bovine serum, heat inactivated (HyClone Laboratories Inc., Logan, UT, cat. SH30070.03HI), 50% L-WRN conditioned media (ATCC, cat. CRL-3276), 1.25 mM N-Acetyl-L-cysteine (Sigma-Aldrich, cat. A9165), 10 mM nicotinamide (Sigma-Aldrich, cat. N0636), 1X B-27 supplement (Thermo Fisher Scientific, cat. 17504044), 1X N-2 supplement (Thermo Fisher Scientific, cat. […]
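Note: spheroids exposed to compounds for one week.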
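Throughout, for viability, T/C: 100% = vehicle DMSO treated spheroids.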

COc1ccc([C@@H](O)c2cc(-c3ncnc4cc(N5CCOCC5)ccc34)c(F)cc2Cl)nn1 + Nc1ccc(C#CCN(C(=O)Cc2ncc(C(F)(F)F)cc2C(F)(F)F)c2ccc(F)cc2)nn1
pIC50 (second compound 0.0316 µM): 5.13
pIC50 (second compound 0.1 µM): 5.06
pIC50 (second compound 0.316 µM): 5.04
pIC50 (second compound 1 µM): 5.10
pIC50 (second compound 3.16 µM): 5.18
pIC50 (second compound 10 µM): < 5.00
viability, T/C (second compound 0.0316 µM, first compound 0.0316 µM): 89.5%
viability, T/C (second compound 0.0316 µM, first compound 0.1 µM): 96.2%
viability, T/C (second compound 0.0316 µM, first compound 0.316 µM): 76.8%
viability, T/C (second compound 0.0316 µM, first compound 1 µM): 88.4%
viability, T/C (second compound 0.0316 µM, first compound 3.16 µM): 72.5%
viability, T/C (second compound 0.0316 µM, first compound 10 µM): 41.7%
viability, T/C (second compound 0.1 µM, first compound 0.0316 µM): 90.2%
viability, T/C (second compound 0.1 µM, first compound 0.1 µM): 106%
viability, T/C (second compound 0.1 µM, first compound 0.316 µM): 96.2%
viability, T/C (second compound 0.1 µM, first compound 1 µM): 90.8%
viability, T/C (second compound 0.1 µM, first compound 3.16 µM): 67.4%
viability, T/C (second compound 0.1 µM, first compound 10 µM): 47.8%
viability, T/C (second compound 0.316 µM, first compound 0.0316 µM): 105%
viability, T/C (second compound 0.316 µM, first compound 0.1 µM): 93.1%
viability, T/C (second compound 0.316 µM, first compound 0.316 µM): 80.9%
viability, T/C (second compound 0.316 µM, first compound 1 µM): 95.4%
viability, T/C (second compound 0.316 µM, first compound 3.16 µM): 71.5%
viability, T/C (second compound 0.316 µM, first compound 10 µM): 47.6%
viability, T/C (second compound 1 µM, first compound 0.0316 µM): 108%
viability, T/C (second compound 1 µM, first compound 0.1 µM): 93.9%
viability, T/C (second compound 1 µM, first compound 0.316 µM): 94%
viability, T/C (second compound 1 µM, first compound 1 µM): 90.4%
viability, T/C (second compound 1 µM, first compound 3.16 µM): 73.8%
viability, T/C (second compound 1 µM, first compound 10 µM): 43.2%
viability, T/C (second compound 3.16 µM, first compound 0.0316 µM): 103%
viability, T/C (second compound 3.16 µM, first compound 0.1 µM): 92.6%
viability, T/C (second compound 3.16 µM, first compound 0.316 µM): 82.8%
viability, T/C (second compound 3.16 µM, first compound 1 µM): 75.5%
viability, T/C (second compound 3.16 µM, first compound 3.16 µM): 61.1%
viability, T/C (second compound 3.16 µM, first compound 10 µM): 43.4%
viability, T/C (second compound 10 µM, first compound 0.0316 µM): 102%
viability, T/C (second compound 10 µM, first compound 0.1 µM): 99.7%
viability, T/C (second compound 10 µM, first compound 0.316 µM): 77.7%
viability, T/C (second compound 10 µM, first compound 1 µM): 73.7%
viability, T/C (second compound 10 µM, first compound 3.16 µM): 72.9%
viability, T/C (second compound 10 µM, first compound 10 µM): 45.8%
